Laboratory results as given in PubChem BioAssay (NCI).
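Tested at 5 concentrations; 48 h exposure; 96-well plates; endpoints linearly interpolated, else capped at highest concentration. At the GI50, growth is halved. TGI: total growth inhibition.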

Columns and labels:
Assay in all cases: inhibition of tumour cell growth, NCI panel, 48 h
[1] = tested on: EKVX NSCLC
[2] = tested on: HCT-116 colon
[3] = tested on: HT29 colon
[4] = tested on: KM12 colon
[5] = tested on: MDA-N
[6] = tested on: NCI-H23 lung
[7] = tested on: OVCAR-3 ovarian
[8] = tested on: RPMI-8226 leukemia
[9] = tested on: SF-295 CNS
[10] = tested on: SK-OV-3 ovarian

Compound | TGI [1] | TGI [2] | TGI [3] | TGI [4] | TGI [5] | TGI [6] | TGI [7] | TGI [8] | TGI [9] | TGI [10] | GI50 [3] | GI50 [8] | GI50 [9] | GI50 [10]
O=C(O)CN(CC(=O)O)C(C(=O)O)c1ccccc1 (stereo unspecified) | > 100 µM | > 100 µM | > 100 µM | > 100 µM | > 100 µM | > 100 µM | > 100 µM | > 100 µM | > 100 µM | > 100 µM |  |  |  | 
O=C1CS(=O)(=O)C(c2cccc(Oc3ccccc3)c2)N1c1cc(Cl)ccc1Cl (stereo unspecified) | > 100 µM | 41.9 µM | 47.8 µM | 39.4 µM | 35.1 µM | > 100 µM | 35.1 µM |  | 62.1 µM | 48.9 µM |  |  |  | 
CN(C)c1cccc2c1C(=O)C=CC21c2ccc(N(C)C)c3c(N(C)C)ccc(c23)C(c2ccccc2)C1c1ccccc1 (stereo unspecified) | 54.8 µM | 52.6 µM | 44.9 µM | 31.3 µM | 37 µM | 75.3 µM | 31.2 µM | 49.3 µM | 32.7 µM | 31.8 µM |  |  |  | 
COC(=O)C1(O)C(c2ccccc2)=NC2(C)CCCC21 (stereo unspecified) |  | > 100 µM | > 100 µM | > 100 µM | > 100 µM | > 100 µM | > 100 µM | > 100 µM | > 100 µM | > 100 µM |  |  |  | 
C=C1C(=O)C23C(O)CC4C5(C)CCCC4(C(O)OC5)C2C(OC(C)=O)CC1C3O (stereo unspecified) | 27.7 µM | 18.5 µM | 17.6 µM | 22.1 µM |  | 19.3 µM | 28.2 µM | 17.7 µM | 41.4 µM | 37.1 µM |  |  |  | 
CC(=O)n1nc(-c2ccccc2)n(/N=C/c2ccc([N+](=O)[O-])o2)c1=O | > 49.1 µM | 3.71 µM | 21.8 µM | 36.4 µM | 3.92 µM | 14.3 µM | 17 µM | 28.2 µM | 47.9 µM | 40.2 µM |  |  |  | 
CC(=O)Oc1c(C)c(C)c2c(c1C)CCC(C)(CC(=O)OCCCCCCCCCCC[P+](c1ccccc1)(c1ccccc1)c1ccccc1)O2 (stereo unspecified) |  |  | 2.29 µM |  |  |  |  | 1.15 µM | 1.09 µM | 0.932 µM | 0.707 µM | 0.237 µM | 0.264 µM | 0.264 µM
c1ccc2c(c1)CCCC/C2=N/OCC1CO1 (stereo unspecified) | > 100 µM | > 100 µM | > 100 µM | > 100 µM |  | > 100 µM |  | 72.9 µM | > 100 µM |  |  |  |  | 
CC1=NNC(=O)C1C1CC(c2c[nH]c3ccccc23)=NN=C1Cl (stereo unspecified) | > 100 µM | > 100 µM | > 100 µM | 69.3 µM | > 100 µM | > 100 µM | > 100 µM | 81.6 µM | > 100 µM | > 100 µM |  |  |  | 
O=S1(=O)C[C@@H](NCc2ccccc2)[C@H](NCc2ccccc2)C1 | > 100 µM | > 100 µM | > 100 µM | > 100 µM | > 100 µM | > 100 µM | > 100 µM | > 100 µM | > 100 µM | > 100 µM |  |  |  | 
CN(C)c1ccc(Cc2cc3c(O)ccc(O)c3cc(Cc3ccc(N(C)C)cc3)c2=O)cc1 | 44.2 µM | 40.8 µM | 37.1 µM | 40 µM | 41 µM | 53.9 µM | 54.2 µM | > 84.9 µM | > 100 µM | > 100 µM |  |  |  | 
Cc1cc(C)nc(NS(=O)(=O)c2ccc(NC(=O)c3cccc4c(NNc5ccc(S(=O)(=O)N=C(N)N)cc5)c5ccccc5nc34)cc2)n1 | > 50 µM | > 50 µM | > 50 µM | > 50 µM | > 50 µM | > 50 µM | > 50 µM | > 50 µM | > 50 µM | > 50 µM |  |  |  | 
COc1ccc([C@H]2C=[N+]([O-])O[C@H](OC3CCCC3)[C@@H]2OC(C)=O)cc1OC | 50.2 µM |  | 54.7 µM | 72.4 µM | 69.2 µM | 57.2 µM | 72.4 µM | > 100 µM | > 100 µM | > 100 µM |  |  |  | 
CCOC(=O)C1CCC(=O)N1C(=O)c1ccccc1Cl (stereo unspecified) | > 100 µM | > 100 µM | > 100 µM | > 100 µM | > 100 µM | > 100 µM | > 100 µM | > 100 µM | > 100 µM |  |  |  |  | 
COC1C(O)C(O[C@H]2CC[C@@]3(C)C(CC[C@@H]4[C@@H]3CC[C@]3(C)[C@@H](C(C)OC5OC(CO)C(O)C(O)C5O)CC[C@]43O)C2)OC(C)C1OC1OC(CO)C(O)C(O)C1O (stereo partly specified) | > 100 µM | > 100 µM | > 100 µM | > 100 µM | > 100 µM | > 100 µM | > 100 µM | > 100 µM | > 100 µM | > 100 µM |  |  |  | 
CCOC(=O)C1=CC(C)(C(=O)OCC)Nc2c(nc(N)[nH]c2=O)N1 (stereo unspecified) | > 10 µM | > 10 µM | > 10 µM | > 10 µM | > 10 µM | > 10 µM | > 10 µM | > 10 µM | > 10 µM | > 10 µM |  |  |  | 
C/C(=C\CO)CC/C=C(\C)CNc1ccc([N+](=O)[O-])cc1 | > 100 µM | > 100 µM | > 100 µM | 64.2 µM |  | 57.7 µM | 48.2 µM |  | > 100 µM | > 100 µM |  |  |  | 
O=C1C2=Nc3ccccc3C(O)(C(=O)O)N2c2ccccc21 (stereo unspecified) | > 100 µM | 59.7 µM | 49.2 µM | > 100 µM |  | 54.3 µM | 58.5 µM | > 100 µM | 39.9 µM |  |  |  |  | 
COc1cc(/C=C2\CCC(C)/C(=C\c3cc(OC)c(OC)c(OC)c3)C2=O)cc(OC)c1OC (stereo unspecified) | 16.3 µM | > 100 µM | 10.9 µM | 8.46 µM | 16.1 µM |  |  | 0.901 µM |  | 62 µM |  |  |  | 
CCOC(=O)NC(Nc1c(F)c(F)c(F)c(F)c1F)(C(F)(F)F)C(F)(F)F | > 100 µM | > 100 µM |  | > 100 µM | > 100 µM | > 100 µM | > 100 µM | > 100 µM | > 100 µM | > 100 µM |  |  |  | 
C(=C\c1ccccc1)/COc1ccccc1C(N1CCOCC1)n1nc2ccccc2n1 (stereo unspecified) | 49.6 µM | 22.8 µM | 10.7 µM | 19.8 µM |  | 24.6 µM | 7.04 µM | 12.2 µM | 28.7 µM | 81.1 µM |  |  |  | 
